Assay [1] in a line: Oxygen radical absorbance capacity assay (ORAC-FL). The conditions noted are these: ORAC-FL method; mean ± SEM. The method, then: Oxygen radical absorbance capacity assay. The evaluation of the antioxidant activity of compounds 4a–l was carried out using the previously established ORAC-FL method, and detailed information is provided in the supporting information.
Antioxidant assay. The antioxidant assessment was conducted by evaluating the compounds 4a–l through the determination of oxygen radical absorbance capacity (ORAC) using the ORAC-Fluorescein (ORAC-FL) method […]
Oxygen radical absorbance capacity assay.
ORAC-FL method, using fluorescein as a fluorescent probe. Shortly, fluorescein and the antioxidants
2,2'-Azobis(amidinopropane)
(emission wavelength) every minute for 1 hour. […]

Assay [2] deals with T1, Human recombinant cathepsin K (Homo sapiens, UniProt P43235).
T1 construct: purchased Enzo Life Sciences
T1 sequence (P43235 115-329): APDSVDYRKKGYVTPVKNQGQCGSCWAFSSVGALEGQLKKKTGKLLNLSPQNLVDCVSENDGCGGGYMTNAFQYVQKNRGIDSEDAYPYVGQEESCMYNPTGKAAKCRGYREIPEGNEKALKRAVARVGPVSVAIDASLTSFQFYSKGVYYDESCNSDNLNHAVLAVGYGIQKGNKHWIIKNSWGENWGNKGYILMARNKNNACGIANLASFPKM
Put plainly: Cathepsin K assay (substrate Z-Leu-Arg-AMC). The class given is biochemical. The conditions noted are these: 50 µM inhibitor, 60 min, 100% = no inhibitor, n.i. = residual activity ≥ 95%; for remaining activity at 50 µM: read-out: Percentage residual activity of human cathepsin K. As for the experimental part: (§1) Cathepsin assays. Assays with human cathepsins B, S, L, and K were carried out as described previously. Stock solutions of substrates and inhibitors were prepared in DMSO. The final DMSO concentration was 2%. All test compounds were investigated in duplicate at a concentration of 50 µM to determine residual activities based on endpoints of substrate consumption after 60 min. Ki values were obtained in duplicate measurements with six different inhibitor concentrations, and 60-min-progress curves were analyzed by linear regression. IC50 values were obtained by non-linear regression using the equation vi = v0/(1 + ([I]/IC50), where vi is the product formation rate at different inhibitor concentrations, v0 is the uninhibited product formation rate, [I] is the inhibitor concentration, and IC50 is the half-maximal inhibitory concentration. IC50 values are transformed to Ki values using the Cheng-Prusoff equation.
Human recombinant cathepsin K (Enzo Life Sciences) was assayed fluorometrically (FLUOstar Optima plate reader, BMG Labtech) with an emission wavelength of 360 nm and an absorption wavelength of 460 nm. The assay buffer was 100 mM sodium citrate pH 5.0, 100 mM NaCl, 1 mM EDTA, 0.01% CHAPS. For activation, an enzyme stock solution was diluted with assay buffer containing 5 mM DTT and incubated for 30 min at 37 °C. The final concentration of the chromogenic substrate Z-Leu-Arg-AMC was 40 µM (13.33 × Km).
(§2) Cathepsins inhibition. Compounds 4a–l were then evaluated for their ability to inhibit Cat S. Besides Cat S, the set of assays included three related human cathepsins, B, L, and K, all members of the class of lysosomal cysteine proteases (see Table S1 in the Supporting Information). Following reported procedures, [39, 40, 41] percentage or residual activities were determined using chromogenic or fluorogenic peptide substrates, with endpoints measured after 60 min of substrate consumption. To determine Ki values, progress curves were followed over 60 min and analyzed by linear regression. Ki values were then obtained by non-linear regression.

Assay [3] addresses T2, Human recombinant cathepsin S (Homo sapiens, UniProt P25774).
T2 construct: purchased Enzo Life Sciences
As to the kind of experiment: Cathepsin S assay (fluorogenic substrate Z-Phe-Arg-AMC). The format is biochemical. The conditions noted are these: for remaining activity at 50 µM: 50 µM inhibitor, 60 min, 100% = no inhibitor, n.i. = residual activity ≥ 95%, read-out: Percentage residual activity of human cathepsin S. The method, then:
as §1
Human recombinant cathepsin S (Enzo Life Sciences) was assayed fluorometrically (FLUOstar Optima plate reader, BMG Labtech) at 25 °C with an emission wavelength of 360 nm and an absorption wavelength of 460 nm. The assay buffer was 100 mM sodium phosphate buffer pH 6.0, 100 mM NaCl, 5 mM EDTA, 0.01% Brij 35. For activation, an enzyme stock solution was diluted with assay buffer containing 5 mM DTT and incubated for 60 min at 37 °C.
as §2

The test system of assay [4] is voltage-gated calcium channels. Put plainly: Calcium channel blockade (FLIPR Calcium 6 indicator, SH-SY5Y cells). The class given is cell-based, human. The conditions noted are these: compounds at 10 µM, KCl/CaCl2 stimulation, n.i. = no inhibition. As for the experimental part:
Calcium channel blockade. Evaluation of the calcium channel blockade of compounds 4a–l was performed using the FLIPR Calcium 6 indicator according to a previously established protocol. Briefly, human neuroblastoma cell line SH-SY5Y seeded out on 96-well plate were treated with fluorescent calcium indicator (FLIPR Calcium 6, Molecular Devices). Cells were incubated with indicator for 2 h at 37 °C, facilitating internalization of the indicator. Subsequently, cells were exposed to nimodipine (10 µM, used as reference inhibitor), DMSO (0.1%, used as vehicle control) or our compounds of interest (10 µM) for 10 min also at 37 °C. Following that, cell fluorescence was recorded using a microplate reader (λEx = 485 nm; λEm = 525 nm). Baseline fluorescence was recorded for 5 s. Afterwards, cells were stimulated by the addition of the solution of KCl and CaCl2 (90 and 5 mM, respectively) in order to induce the opening of voltage-gated calcium channels. An increase in fluorescence of calcium indicator after inducing calcium flux was recorded for another 30 s. Data were collected from three independent experiments, with eight technical replicates per experiment. Fluorescence intensity values were normalized to the baseline recorded before the induction of calcium flux. The percentage of inhibition was calculated as a reduction of normalized calcium flux in comparison with the DMSO vehicle control. Outliers were detected using the Grubbs test, and any outlying values were excluded from further analysis.
Calcium channel blockade. The Ca^2+ channel blocking capacity of compounds 4a–l and nimodipine, used as a standard at a concentration of 10 μM, was evaluated according to an established methodology.

Assay [5] has as its target T3, Human isolated cathepsin B (Homo sapiens, UniProt P07858).
T3 construct: Human isolated cathepsin B (Calbiochem) was assayed spectrophotometrically; purchased Calbiochem
Put plainly: Cathepsin B assay (chromogenic substrate Z-Arg-Arg-pNA). The class given is biochemical. The conditions noted are these: 50 µM inhibitor, 60 min, 100% = no inhibitor, n.i. = residual activity ≥ 95%; for remaining activity at 50 µM: read-out: Percentage residual activity of human cathepsin B. As for the experimental part: as §1
Human isolated cathepsin B (Calbiochem) was assayed spectrophotometrically (Cary 50 Bio, Varian) at 405 nm and 37 °C. Assay buffer was 100 mM sodium phosphate buffer pH 6.0, 100 mM NaCl, 5 mM EDTA, 0.01% Brij 35. For activation, an enzyme stock solution was diluted with assay buffer containing 5 mM DTT and incubated for 30 min at 37 °C. The final concentration of the chromogenic substrate Z-Arg-Arg-pNA was 500 µM (0.45 × Km).
as §2

The target in assay [6] is T4, Human isolated cathepsin L (Homo sapiens, UniProt P07711).
T4 construct: Human isolated cathepsin L (Enzo Life Sciences) was assayed spectrophotometrically; purchased Enzo Life Sciences
T4 sequence (P07711 114-333): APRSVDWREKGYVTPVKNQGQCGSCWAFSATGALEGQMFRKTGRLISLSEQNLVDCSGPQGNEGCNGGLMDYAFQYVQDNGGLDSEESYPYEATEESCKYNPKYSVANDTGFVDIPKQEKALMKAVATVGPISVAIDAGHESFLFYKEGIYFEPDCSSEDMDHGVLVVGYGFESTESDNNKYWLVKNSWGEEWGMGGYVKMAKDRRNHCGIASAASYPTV
As to the kind of experiment: Cathepsin L assay (chromogenic substrate Z-Phe-Arg-pNA). The format is biochemical. The conditions noted are these: 50 µM inhibitor, 60 min, 100% = no inhibitor, n.i. = residual activity ≥ 95%; for remaining activity at 50 µM: read-out: Percentage residual activity of human cathepsin L. As for the experimental part:
as §1
Human isolated cathepsin L (Enzo Life Sciences) was assayed spectrophotometrically (Cary 50 Bio, Varian) at 405 nm and 37 °C. The assay buffer was 100 mM sodium phosphate buffer pH 6.0, 100 mM NaCl, 5 mM EDTA, and 0.01% Brij 35. For activation, an enzyme stock solution was diluted with assay buffer containing 5 mM DTT and incubated for 30 min at 37 °C. The final concentration of the chromogenic substrate Z-Phe-Arg-pNA was 100 µM (5.88 × Km).
as §2

In assay [7] the test system is Nrf2-ARE. As to the kind of experiment: Nrf2 transcriptional activation, cell-based luciferase assay. The conditions noted are these: 24 h; for EC50: CD = concentration required to double the specific activity of the luciferase reporter, read-out: Nrf2 Induction Potencies CD. As for the experimental part: Nrf2 transcriptional activation potencies. The assessment of the Nrf2 transcriptional activation potencies of compounds 4a–l was carried out using the previously described method, and detailed information is provided in the supporting information.
Nrf2 transcriptional activation potencies of compounds 4a–l. […] AREc32 cells were exposed to escalating concentrations of each compound (1, 5, 10, 25, 50, 100, 125, and 150 μM) for 24 h to reach the cytotoxic threshold, followed by measurements of luciferase activity. Melatonin was used as a positive control.
4e H Cl H n.i. 76 n.i. […]
Nrf2 transcriptional activation potencies. The stable NRF2/ARE luciferase reporter HEK293 cell line
(Promega) according to the manufacturer's instructions. To assess cellular viability, the stable

The record followed here is PMC10819521 (Pharmaceutics, 2024).

Several values for one entry are separate records, joined by “and”; a condition that tells them apart may be missing. Equal entries are not always repeated.

T2 sequence (P25774 115-331): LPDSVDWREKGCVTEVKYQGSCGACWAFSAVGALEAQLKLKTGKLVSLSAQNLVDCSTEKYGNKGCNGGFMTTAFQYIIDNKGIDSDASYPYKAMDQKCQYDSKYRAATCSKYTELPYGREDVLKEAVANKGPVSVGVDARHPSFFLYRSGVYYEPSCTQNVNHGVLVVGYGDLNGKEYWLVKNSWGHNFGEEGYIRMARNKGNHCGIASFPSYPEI

Turning to `C#CCNC(=O)C1=C(C)NC(C)=C(C(=O)NCC#C)C1c1ccccc1` [4a, 2,6-Dimethyl-4-phenyl-N3,N5-bis(prop-2-yn-1-yl)-1,4-dihydropyridine-3,5-dicarboxamide], the ORAC in assay [1] was 0.86 Trolox equivalents and 0.86 ± 0.05 Trolox equivalents. Also, the “Percentage residual activity of human cathepsin K” value in assay [2] is given as “n.i”. Further, the remaining activity at 50 µM in assay [3] was found to be 68%. Further, the “Calcium Channel Blockade (%)” value in assay [4] is recorded as 12%. Moreover, the “Percentage residual activity of human cathepsin B” value in assay [5] is reported as “n.i”. Also, the “Percentage residual activity of human cathepsin L” value in assay [6] is listed as “n.i”. For the same compound, in assay [7] (concentrations up to 150 μM, versus non-treated cells), the “Induction of the Nrf2 pathway (luciferase activity)” value is recorded as “no significant activity”.

On to `C#CCN(C)C(=O)C1=C(C)NC(C)=C(C(=O)N(C)CC#C)C1c1ccccc1OC` [4k, 4-(2-Methoxyphenyl)-N2,N3,5,6-tetramethyl-N3,N5-bis(prop-2-yn-1-yl)-1,4-dihydropyridine-3,5-dicarboxamide], for which, in assay [1], the ORAC result was “n.i”. For the same compound, the remaining activity at 50 µM in assay [2] is 82%; in assay [3], 79%; in assay [5] it was 86%; in assay [6], 92%. Also, the “Calcium Channel Blockade (%)” value in assay [4] was 14%. In addition, the EC50 in assay [7] amounted to 69.4 ± 9.1 µM.

For the compound `COCCOC(=O)C1=C(C)NC(C)=C(C(=O)OC(C)C)C1c1cccc([N+](=O)[O-])c1` (centres unmarked) [nimodipine, reference compound], the “Calcium Channel Blockade (%)” value in assay [4] came to 37%.

As for `C#CCNC(=O)C1=C(C)NC(C)=C(C(=O)NCC#C)C1c1ccccc1Cl` [4e, 4-(2-Chlorophenyl)-2,6-dimethyl-N3,N5-bis(prop-2-yn-1-yl)-1,4-dihydropyridine-3,5-dicarboxamide], the ORAC in assay [1] worked out at 1.15 ± 0.02 Trolox equivalents. The remaining activity at 50 µM was determined as 85% in assay [2] and 76% in assay [3]. Further, in assay [4], the “Calcium Channel Blockade (%)” value was “n.i”. Besides, in assay [5], the “Percentage residual activity of human cathepsin B” value is listed as “n.i”. For the same compound, in assay [6], the “Percentage residual activity of human cathepsin L” value is “n.i”.

In assay [1], `C#CCNC(=O)C1=C(C)NC(C)=C(C(=O)NCC#C)C1c1ccccc1Br` [4g, 4-(2-Bromophenyl)-2,6-dimethyl-N3,N5-bis(prop-2-yn-1-yl)-1,4-dihydropyridine-3,5-dicarboxamide] gave an ORAC of 1.43 ± 0.03 Trolox equivalents. Further, the remaining activity at 50 µM is 90% in assay [2], 70% in assay [3] and 88% in assay [5]. Further, the “Calcium Channel Blockade (%)” value in assay [4] is on record as “n.i”. The “Percentage residual activity of human cathepsin L” value in assay [6] is listed as “n.i”.

On to `COc1ccc2[nH]cc(CCNC(C)=O)c2c1` [melatonin, reference compound], for which the EC50 in assay [7] worked out at 66.4 ± 16.4 µM.

The compound `C#CCNC(=O)C1=C(C)NC(C)=C(C(=O)NCC#C)C1c1cccc(Br)c1` [4h, 4-(3-Bromophenyl)-2,6-dimethyl-N3,N5-bis(prop-2-yn-1-yl)-1,4-dihydropyridine-3,5-dicarboxamide] gave an ORAC in assay [1] of 1.28 ± 0.05 Trolox equivalents. The “Percentage residual activity of human cathepsin K” value in assay [2] was “n.i”. Also, the figures for the remaining activity at 50 µM in assay [3], in assay [5] and in assay [6] were 54%, 71% and 87%, respectively. Further, the Ki in assay [3] (Ki ± SEM, n.i. = no inhibition, residual activity ≥ 95% at 50 μM, read-out: CatS Ki) was found to be 55.3 ± 7.4 µM. The “Calcium Channel Blockade (%)” value in assay [4] is reported as 7%.

In turn, `C#CCNC(=O)C1=C(C)NC(C)=C(C(=O)NCC#C)C1c1cccc2nonc12` [4d, 4-(2,1,3-Benzoxadiazol-4-yl)-2,6-dimethyl-N3,N5-bis(prop-2-yn-1-yl)-1,4-dihydropyridine-3,5-dicarboxamide] yielded an ORAC in assay [1] of 1.23 ± 0.23 Trolox equivalents. For the same compound, the remaining activity at 50 µM amounted to 62% in assay [2], 77% in assay [3] and 90% in assay [6]. Further, in assay [4], the “Calcium Channel Blockade (%)” value is listed as 10%. The “Percentage residual activity of human cathepsin B” value in assay [5] is “n.i”.

`C#CCNC(=O)C1=C(C)NC(C)=C(C(=O)NCC#C)C1c1ccccc1OC` [4f, 4-(2-Methoxyphenyl)-2,6-dimethyl-N3,N5-bis(prop-2-yn-1-yl)-1,4-dihydropyridine-3,5-dicarboxamide] returned an ORAC in assay [1] of 1.34 ± 0.20 Trolox equivalents. In addition, the “Percentage residual activity of human cathepsin K” value in assay [2] was “n.i”. Besides, the figures for the remaining activity at 50 µM in assay [3], in assay [5] and in assay [6] were 67%, 71% and 86%, respectively. Besides, the “Calcium Channel Blockade (%)” value in assay [4] is 19%.
